Earlier results on 1 compound are cited in patent US6901278B1, “Methods for reducing the risk of breast cancer in and improving the health of women” (priority 2002, dated 2005).

Molecules are shown by their SMILES.

The conditions of the data set: following first-pass hepatic metabolism.

With `C[C@]12CC[C@@H]3c4ccc(O)cc4CC[C@H]3[C@@H]1CC[C@@H]2O` [Estradiol, 17β-estradiol], the “bioavailable fraction of oral estradiol” value is recorded as 5%.
